Values after ≈ are worked out from the molar mass of the structure shown. Active and inactive are the calls of the source. The rule behind the calls is not given here.
Tests used:
A549 = assay: Cytotoxicity against human A549 cells after 24 hrs by MTT assay; type: functional, cell-based; conditions: A549, 24 h
MCF7 = assay: Cytotoxicity against human MCF7 cells after 24 hrs by MTT assay; type: functional, cell-based; conditions: MCF7, 24 h
DU-145 = assay: Cytotoxicity against human DU145 cells after 24 hrs by MTT assay; type: functional, cell-based; conditions: DU-145, 24 h
HeLa = assay: Cytotoxicity against human HeLa cells after 24 hrs by MTT assay; type: functional, cell-based
Micrococcus luteus [1] = assay: Antimicrobial activity against Micrococcus luteus MTCC 2470 after 24 hrs by well diffusion method; type: functional; conditions: MTCC 2470, 24 h
Staphylococcus aureus [2] = assay: Antimicrobial activity against Staphylococcus aureus MTCC 96 after 24 hrs by well diffusion method; type: functional; conditions: MTCC 96, 24 h
Staphylococcus aureus [3] = assay: Antimicrobial activity against Staphylococcus aureus MLS-16 MTCC 2940 after 24 hrs by well diffusion method; type: functional; conditions: MLS-16 MTCC 2940, 24 h
Bacillus subtilis [4] = assay: Antimicrobial activity against Bacillus subtilis MTCC 121 after 24 hrs by well diffusion method; type: functional; conditions: MTCC 121, 24 h
Escherichia coli [5] = assay: Antimicrobial activity against Escherichia coli MTCC 739 after 24 hrs by well diffusion method; type: functional; conditions: MTCC 739, 24 h
Pseudomonas aeruginosa [6] = assay: Antimicrobial activity against Pseudomonas aeruginosa MTCC 2453 after 24 hrs by well diffusion method; type: functional; conditions: MTCC 2453, 24 h
Raoultella planticola [7] = assay: Antimicrobial activity against Klebsiella planticola MTCC 530 after 24 hrs by well diffusion method; type: functional; conditions: MTCC 530, 24 h
Candida albicans = conditions: MTCC 3017
Description: Antimicrobial activity against Candida albicans MTCC 3017 after 24 hrs by well diffusion method

Micrococcus luteus [8] = assay: Bactericidal activity against Micrococcus luteus MTCC 2470 after 24 hrs by agar plating method; type: functional; conditions: MTCC 2470, 24 h
Staphylococcus aureus [9] = assay: Bactericidal activity against Staphylococcus aureus MTCC 96 after 24 hrs by agar plating method; type: functional; conditions: MTCC 96, 24 h
Staphylococcus aureus [10] = assay: Bactericidal activity against Staphylococcus aureus MLS-16 MTCC 2940 after 24 hrs by agar plating method; type: functional; conditions: MLS-16 MTCC 2940, 24 h
Bacillus subtilis [11] = assay: Bactericidal activity against Bacillus subtilis MTCC 121 after 24 hrs by agar plating method; type: functional; conditions: MTCC 121, 24 h
Escherichia coli [12] = assay: Bactericidal activity against Escherichia coli MTCC 739 after 24 hrs by agar plating method; type: functional; conditions: MTCC 739, 24 h
Pseudomonas aeruginosa [13] = assay: Bactericidal activity against Pseudomonas aeruginosa MTCC 2453 after 24 hrs by agar plating method; type: functional; conditions: MTCC 2453, 24 h
Raoultella planticola [14] = assay: Bactericidal activity against Klebsiella planticola MTCC 530 after 24 hrs by agar plating method; type: functional; conditions: MTCC 530, 24 h

C#CCn1nc(-n2cc(COc3cc(C(F)(F)F)nc(N)n3)nn2)c2ccc(C(F)(F)F)nc21
IC50 (A549): 4.1 µM
IC50 (MCF7): > 100 µM
IC50 (DU-145): 4.7 µM
IC50 (HeLa): > 100 µM
MIC (Micrococcus luteus [1]): > 250 mg/L
MIC (Staphylococcus aureus [2]): > 250 mg/L
MIC (Staphylococcus aureus [3]): > 250 mg/L
MIC (Bacillus subtilis [4]): > 250 mg/L
MIC (Escherichia coli [5]): > 250 mg/L
MIC (Pseudomonas aeruginosa [6]): > 250 mg/L
MIC (Raoultella planticola [7]): > 250 mg/L
MIC (Candida albicans): inactive

CCCCCCCCCCn1nc(-n2cc(Cn3c(N)nc(C(F)(F)F)cc3=O)nn2)c2ccc(C(F)(F)F)nc21
IC50 (A549): 14.3 µM
IC50 (MCF7): 15.7 µM
IC50 (DU-145): 17.1 µM
IC50 (HeLa): 13.4 µM

O=c1[nH]cc(F)c(=O)[nH]1 [FLUOROURACIL]
IC50 (A549): 1.3 µM
IC50 (MCF7): 1.4 µM
IC50 (DU-145): 1.5 µM
IC50 (HeLa): 1.3 µM

C#CCn1nc(-n2cc(Cn3c(N)nc(C(F)(F)F)cc3=O)nn2)c2ccc(C(F)(F)F)nc21
IC50 (A549): 21.2 µM
IC50 (MCF7): 12.4 µM
IC50 (DU-145): 23.4 µM
IC50 (HeLa): 10.2 µM

CCOC(=O)Cn1nc(-n2cc(Cn3c(N)nc(C(F)(F)F)cc3=O)nn2)c2ccc(C(F)(F)F)nc21
IC50 (A549): 16.2 µM
IC50 (MCF7): 12.2 µM
IC50 (DU-145): 18.3 µM
IC50 (HeLa): 11.4 µM

O=C(O)c1cn(C2CC2)c2cc(N3CCNCC3)c(F)cc2c1=O [CIPROFLOXACIN]
MIC (Micrococcus luteus [1]): 0.9 mg/L (≈ 2.72 µM)
MIC (Staphylococcus aureus [2]): 0.9 mg/L (≈ 2.72 µM)
MIC (Staphylococcus aureus [3]): 0.9 mg/L (≈ 2.72 µM)
MIC (Bacillus subtilis [4]): 0.9 mg/L (≈ 2.72 µM)
MIC (Escherichia coli [5]): 0.9 mg/L (≈ 2.72 µM)
MIC (Pseudomonas aeruginosa [6]): 0.9 mg/L (≈ 2.72 µM)
MIC (Raoultella planticola [7]): 0.9 mg/L (≈ 2.72 µM)
MBC (Micrococcus luteus [8]): 0.58 mg/L (≈ 1.75 µM)
MBC (Staphylococcus aureus [9]): 0.58 mg/L (≈ 1.75 µM)
MBC (Staphylococcus aureus [10]): 1.17 mg/L (≈ 3.53 µM)
MBC (Bacillus subtilis [11]): 1.17 mg/L (≈ 3.53 µM)
MBC (Escherichia coli [12]): 0.58 mg/L (≈ 1.75 µM)
MBC (Pseudomonas aeruginosa [13]): 0.58 mg/L (≈ 1.75 µM)
MBC (Raoultella planticola [14]): 1.17 mg/L (≈ 3.53 µM)
MIC (Candida albicans): inactive

Nc1nc(OCc2cn(-c3nn(CCC(F)(F)C(F)(F)C(F)(F)C(F)(F)C(F)(F)C(F)(F)C(F)(F)C(F)(F)F)c4nc(C(F)(F)F)ccc34)nn2)cc(C(F)(F)F)n1
IC50 (A549): 33.7 µM
IC50 (MCF7): > 100 µM
IC50 (DU-145): 37.7 µM
IC50 (HeLa): > 100 µM
MIC (Micrococcus luteus [1]): > 250 mg/L
MIC (Staphylococcus aureus [2]): > 250 mg/L
MIC (Staphylococcus aureus [3]): > 250 mg/L
MIC (Bacillus subtilis [4]): > 250 mg/L
MIC (Escherichia coli [5]): > 250 mg/L
MIC (Pseudomonas aeruginosa [6]): > 250 mg/L
MIC (Raoultella planticola [7]): > 250 mg/L
MIC (Candida albicans): inactive

Nc1nc(C(F)(F)F)cc(=O)n1Cc1cn(-c2n[nH]c3nc(C(F)(F)F)ccc23)nn1
IC50 (A549): 9.5 µM
IC50 (MCF7): 14.4 µM
IC50 (DU-145): 10.5 µM
IC50 (HeLa): 16.1 µM

Nc1n[nH]c2nc(C(F)(F)F)ccc12
IC50 (A549): 22.4 µM
IC50 (MCF7): 58.4 µM
IC50 (DU-145): 29.1 µM
IC50 (HeLa): 60.2 µM

C=CCn1nc(-n2cc(COc3cc(C(F)(F)F)nc(N)n3)nn2)c2ccc(C(F)(F)F)nc21
IC50 (A549): > 100 µM
IC50 (MCF7): 19.4 µM
IC50 (DU-145): > 100 µM
IC50 (HeLa): 18.4 µM
MIC (Micrococcus luteus [1]): 7.8 mg/L (≈ 16.1 µM)
MIC (Staphylococcus aureus [2]): > 250 mg/L
MIC (Staphylococcus aureus [3]): > 250 mg/L
MIC (Bacillus subtilis [4]): > 250 mg/L
MIC (Escherichia coli [5]): > 250 mg/L
MIC (Pseudomonas aeruginosa [6]): > 250 mg/L
MIC (Raoultella planticola [7]): > 250 mg/L
MIC (Candida albicans): inactive

CCn1nc(-n2cc(Cn3c(N)nc(C(F)(F)F)cc3=O)nn2)c2ccc(C(F)(F)F)nc21
IC50 (A549): > 100 µM
IC50 (MCF7): 95.2 µM
IC50 (DU-145): > 100 µM
IC50 (HeLa): 62.3 µM

From ChEMBL document CHEMBL3286384, “Synthesis, cytotoxicity, antimicrobial and anti-biofilm activities of novel pyrazolo[3,4-b]pyridine and pyrimidine functionalized 1,2,3-triazole derivatives” (Bioorg Med Chem Lett, 2014)
